Source: patent US20110053849A1 (priority 2006, published 2011)

Columns and labels:
LITAF promoter = assay: Luciferase reporter assay of LITAF promoter activity in p53-null H1299 cells; type: cell-based, human; settings: for Luciferase activity with peptide alone: peptide alone without pGLP700, FIG. 7 #5 and #6
Description: Luciferase assay. […] Cells were then incubated overnight in appropriate media (DMEM or RPMI 1640)+10% FBS at 37° C., in a humidified atmosphere containing 5% CO2. The β-galactosidase gene was included in all transfections. Cells were harvested and the luciferase activity of each lysate was measured (Turner Designs luminometer model TD-20/20) using a commercial kit (luciferase reporter assay system, Promega) according to the protocol provided by the manufacturer. Finally, the data were normalized to β-galactosidase expression.
The promoter activity of pGLP700 alone was assigned the maximal value of 100%. […] Deletions, indicated by ̂, correspond to aa 101-167 in construct A12, aa 167-234 in B1, aa 235-300 in C6 and aa 156-178 in D10. Construct p53LFB12 contained only 7 aa (KQSQHMT [SEQ ID NO: 1]) from the region (aa 164-170).
The proteins extracted from each transfection of construct plus pGLP700 compared to the transfection of pGLP700 alone in p53-null H1299 cells were measured by luciferase assay. Triplicate assays were performed. […] Construct C6, containing aa 167 and its flanking sequences, reduced LITAF promoter activity to 22% of control even though it lacked aa 235-300.
Furthermore, short peptides (pep12) that contain 7 residues (aa 164-170) (KQSQHMT [SEQ ID NO: 1]) corresponding to p53LFB12 and another peptide (pepSC) with reverse sequence of pep12 as a negative control, were synthesized and analyzed using the luciferase assay. Cultures of p53-null H1299 cells (5×10^6) were transfected with pGLP700 (#2-4, #7-12), pGLP550 (#13 and 14) or pGLP500 (#15 and 16) plus p53LFB12 (#4) or plus 12REV (#3) as control using Lipofactamine 2000 (Invitrogen) for 3 hours, washed with PBS and further transfected with peptide, 10 μg/ml (#10, 12, 14 and 16), then cells were incubated in appropriate medium at 37° C. overnight. Luciferase activities of the lysates from each culture of treated cells were measured. The extracts from untreated (#1), pepSC alone (#5), pep12 alone (#6), pGLP700 alone (#2 and 11, pGLP550 alone (#13) or pGLP500 alone (#15) were used as controls. Triplicate assays were performed.

TNF-α = assay: ELISA of LPS-induced TNF-α production in human monocytes; type: cell-based; settings: 0.1 μg/ml E. coli LPS 3 hours, then peptide 16 hours, FIG. 8A
Description: ELISA. Human monocytes (1×10^6) were stimulated with 0.1 μg/ml E. coli LPS for 3 hrs, washed with PBS, then further treated with peptides by Chariot kit (Active Motif, Carlsbad, Calif.). Cells were then incubated overnight in RPMI 1640 medium supplemented with 10% FBS at 37° C., in a humidified atmosphere containing 5% CO2. Culture supernatants were harvested and centrifuged at 1,500×g to remove cell debris, then concentrations of human TNF-α in the supernatant of each treated or untreated control cell condition were measured by ELISA (Abraxis, Warminster, Pa.). The ELISA immunoreactivity was quantified using a VerSaDoc Imaging System (BIO-RAD) and graphed.
To further examine the effects of pep12 on LPS-induced LITAF gene expression and LITAF-dependent TNF-α production, analyses of Western blot and ELISA were performed. Human monocytes (1×10^6) were stimulated with 0.1 μg/ml E. coli LPS for 3 hours and washed with PBS prior to treatment with peptides for 16 hours with either pep12 (#5) or pepSC as control (#4) using a Chariot kit (Active motif, Carlsbad, Calif.) or transfected with no DNA (#1) or with pGLP700 DNA (#2) as negative controls or with p53-1 DNA (#3) as a positive control. […] The supernatants from cell cultures were measured by ELISA (Abraxis, Warminster, Pa.) and the extracts were detected by Western blot with antibodies against LITAF and actin (as a control).

LITAF = assay: Western blot of LPS-induced LITAF gene expression in human monocytes; type: cell-based; settings: 0.1 μg/ml E. coli LPS 3 hours, then peptide 16 hours, FIG. 8B lane 5
Description: Western blot analysis. […] Cells were then incubated overnight in RPMI 1640 medium with 10% FBS at 37° C., in a humidified atmosphere containing 5% CO2. The proteins from the treated cells were extracted with lysis buffer (Promega) plus a cocktail of […] (Sigma) following the manufacturer's instructions and suspended in SDS sample buffer, heated at 95° C. for 5 min, then applied to SDS-polyacrylamide gels and detected by Western blotting.
To further examine the effects of pep12 on LPS-induced LITAF gene expression and LITAF-dependent TNF-α production, analyses of Western blot and ELISA were performed. Human monocytes (1×10^6) were stimulated with 0.1 μg/ml E. coli LPS for 3 hours and washed with PBS prior to treatment with peptides for 16 hours with either pep12 (#5) or pepSC as control (#4) using a Chariot kit (Active motif, Carlsbad, Calif.) or transfected with no DNA (#1) or with pGLP700 DNA (#2) as negative controls or with p53-1 DNA (#3) as a positive control. The cells were incubated in appropriate medium at 37° C., 5% CO2 overnight. The supernatants from cell cultures were measured by ELISA (Abraxis, Warminster, Pa.) and the extracts were detected by Western blot with antibodies against LITAF and actin (as a control).

human cytokines = assay: Bioplex human monocyte cytokine assay; type: cell-based; settings: E. coli LPS + pep12 (10 µg or 100 υg)
Description: This assay was performed to determine the effectiveness of the peptide of the present invention [pep12: SEQ ID NO.: 1] to inhibit various human cytokines. The assay performed was a human monocyte assay well known to those practiced in the art. The kit used here (trade name Bioplex) was supplied by Bio-Rad (Hercules, Calif.). Other commercially available assays are known and suitable for use in the assay described here.
Bar (1) is the carrier solution alone (chariot alone); bar (2) is E. coli LPS stimulant; bar (3) is E. coli LPS+pepSC (scramble peptide); bar (4) is E. coli LPS+pep12 (10 υg); bar (5) is E. coli LPS+pep12 (100 υg). The cytokines tested include Human (Hu) IL-2, Hu Il-5, Hu Il-7, Hu Il-12 Hu Eotaxin, Hu Il-13, Hu-PDGF-β, Hu IL-1β, Hu-15, Hu IFN-γ, Hu IP-10, Hu IL-6, Hu RANTES, Hu TNF-α, Hu Il-1ra and Hu VEGF.

[1] = peptide 10 μg/ml plus pGLP700, FIG. 7 #7 and #10

Question: How did the LITAF promoter activity (LITAF promoter; pep12 10 μg/ml plus pGLP500, FIG. 7 #16 vs #15) turn out when KQSQHMT [pep12] was run?
Answer: did not affect LITAF promoter activity

Question: What about the “LITAF promoter activity, % of control” value (LITAF promoter; pep12 10 μg/ml plus pGLP550, FIG. 7 #14 vs #13) of the same substance?
Answer: 23%

Question: And the “LITAF promoter activity, % of control” value (LITAF promoter; pep12 10 μg/ml plus pGLP700, FIG. 7 #12 vs #11)?
Answer: 15%

Question: And the “LITAF promoter activity (untreated pGLP700 #2 = 100%)” value (LITAF promoter; peptide 0.1 μg/ml plus pGLP700, FIG. 7 #8)?
Answer: 66%

Question: What about the “LITAF promoter activity (untreated pGLP700 #2 = 100%)” value (LITAF promoter; [1]) of the same substance?
Answer: 15%

Question: What about the “Luciferase activity with peptide alone” value (LITAF promoter) of the same substance?
Answer: 2.3%

Question: What about the “LITAF promoter activity (untreated pGLP700 #2 = 100%)” value (LITAF promoter; peptide plus pGLP700, FIG. 7 #9, concentration not clearly printed) of the same substance?
Answer: 40%

Question: What about the “LPS-induced TNF-α production, % of control” value (TNF-α) of the same substance?
Answer: ≤ 70%

Question: And the “LPS-induced LITAF gene expression” value (LITAF)?
Answer: inhibition of LPS-induced LITAF gene expression

Question: What about the “Concentration of active cytokine: Hu IL-13” value (human cytokines) of the same substance?
Answer: only minor reductions

Question: And the “Concentration of active cytokine: Hu PDGF-β” value (human cytokines)?
Answer: only minor reductions

Question: What about the “Concentration of active cytokine: Hu RANTES” value (human cytokines) of the same substance?
Answer: only minor reductions

Question: And the “Concentration of active cytokine: IL-2, IL-5, IL-7, IL-12, Eotaxin, IL-1β, IL-15, IFN-γ, IP-10, IL-6, TNF-α, IL-1ra, VEGF” value (human cytokines; FIGS. 9A-9C)?
Answer: significant reduction

Question: What does the source list for SKMQQTH [pepSC, reference compound]?
Answer: LITAF promoter activity (untreated pGLP700 #2 = 100%) (LITAF promoter; [1]): 95%; Luciferase activity with peptide alone (LITAF promoter): 1.5%; LPS-induced TNF-α production, % of control (TNF-α): could not affect LPS-induced TNF-α secretion
